In ChEMBL document CHEMBL5120891, “Beyond Proteolysis-Targeting Chimeric Molecules: Designing Heterobifunctional Molecules Based on Functional Effectors” (J Med Chem, 2022):

Target: T1, Macrophage migration inhibitory factor (Homo sapiens) (UniProt P14174)
T1 sequence (whole entry): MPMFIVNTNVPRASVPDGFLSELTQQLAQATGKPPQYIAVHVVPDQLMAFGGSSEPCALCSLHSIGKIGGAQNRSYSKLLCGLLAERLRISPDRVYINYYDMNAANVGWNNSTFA
Assay: LYTAC activity at ASGPR/MIF (unknown origin) by cell based assay

## CC(=O)N[C@H]1[C@H](OCCOCCOCCNC(=O)CCOCC(COCCC(=O)NCCOCCOCCO[C@@H]2O[C@H](CO)[C@H](O)[C@H](O)[C@H]2NC(C)=O)(COCCC(=O)NCCOCCOCCO[C@@H]2O[C@H](CO)[C@H](O)[C@H](O)[C@H]2NC(C)=O)NC(=O)CNC(=O)CCCOc2ccc3nc(-c4cn(-c5ccc(O)c(F)c5)nn4)ccc3c2)O[C@H](CO)[C@H](O)[C@@H]1O
  Activity: > 1 µM
